Measurements published in EP0595183B1, “Hydantoin derivatives, salts thereof and maillard reaction inhibitors comprising the same” (SANWA KAGAKU KENKYUSHO CO., LTD., priority 1992, dated 1994).

Columns and labels:
[1] = test system: bovine serum albumin (BSA); test: Inhibition of fluorescence development (Maillard reaction products) in BSA/fructose incubation; format: biochemical; settings: compound 5mM, BSA 10mg/ml, fructose 400mM, pH 7.4, 20% DMSO, 37°C for 24 hours; fluorescence ex 350nm / em 428nm
Description: A testing or control compound (5mM), bovine serum albumin (BSA, 10mg/ml) and fructose (400mM) were dissolved in […] Na-phosphate buffer (pH 7.4) containing 20% DMSO. The mixture was incubated at 37°C for 24 hours.
The incubated mixture was diluted to 10 folds in volume with distilled water and measured fluorescense intensity at excitation wavelength of 350nm and emission wavelength of 428nm with a HITACHI F-4010 spectrofluorometer. The inhibition ratio of fluorescense development was estimated with the following equation. Inhibition (%) = {[F1-F3-F4)- (F2-F3-F4)]/(F1-F3-F4)} x 100 [formula] wherein, Inhibition : Inhibition ratio, F1 : Fluorescense intensity of the solution containing no compound, F2 : Fluorescense intensity of the solution containing the compound, F3 : Fluorescense intensity of the solution containing only BSA, and F4 : Fluorescense intensity of the solution containing only fructose.

[2] = Acute toxicity by oral administration; settings: in vivo
From the text: (§1) Acute and 4 week subacute toxicities of exemplar compounds according to the invention were checked by oral administration thereof and using rats.

BSA = test: Inhibition of cross-linking of proteins (SDS-PAGE), BSA with fructose; format: biochemical; settings: Protein BSA 10mg/ml, compound 5mM, fructose 400mM, pH 7.4, 37°C for 7 days
Description: (§2) A testing or control compound (5mM), fructose (400mM) and a protein of either BSA (10mg/ml) or lysozyme (10mg/ml) were dissolved in 0.5M Na-phosphate buffer (pH 7.4). The mixture was incubated at 37°C for 7 days At the end of the reaction period, sodium dodecyl sulfonate-polyacrylamide gel electrophoresis (SDS-PAGE) was carried out with using aliquots of the reaction mixture. Protein band was stained with Coomassie brilliant blue and protein content of each band was determined with a SHIMAZU UV-265 scanmeter.
(§3) The inhibition ratio of cross-linking of proteins was estimated with the following equation. Inhibition ratio (%) = [(A - B)/A] x 100 [formula] wherein, A : degree of cross-link formation (containing no compound), and B : degree of cross-link formation (containing the compound).

lysozyme = test: Inhibition of cross-linking of proteins (SDS-PAGE), lysozyme with fructose; format: biochemical; settings: Protein Lysozyme 10mg/ml, compound 5mM, fructose 400mM, pH 7.4, 37°C for 7 days
Description: as §2, §3

rats = test: 4 week subacute toxicity by oral administration; format: in vivo; settings: rat (male)
From the text: as §1

Compound	Inhibition ratio (%) [1] [%]	LD50 ([2]; rat (female)) [mg/kg]	LD50 ([2]; rat (male)) [mg/kg]	Inhibition ratio (%) (BSA)	Inhibition ratio (%) (lysozyme)	Non-toxic dose (rats) [mg/kg]
O=C1NC(=O)[C@@]2(C[C@@H](C(=O)NNc3ccccc3)Oc3ccc(F)cc32)N1 [Reference Example 4, (2S,4S)-6-Fluoro-2',5'-dioxo-N'-phenylspiro[chroman-4,4'-imidazolidine]-2-carbohydrazide]	17.8	–	–	–	–	–
NC(=O)[C@@H]1C[C@]2(NC(=O)N(N)C2=O)c2cc(F)ccc2O1 [Example 10, (2S,4S)-1'-Ainino-6-fluoro-2',5'-dioxospiro[chroman-4,4'-imidazolidine]-2-carboxamide]	19.7	–	–	–	–	–
NNC(=O)[C@H]1C[C@@]2(NC(=O)NC2=O)c2cc(F)ccc2O1 [Example 1, (2R,4R)-6-Fluoro-2',5'-dioxospiro[chroman-4,4'-imidazolidine]-2-carbohydrazide]	87.3	> 4000	> 4000	–	–	–
NNC(=O)[C@H]1C[C@]2(NC(=O)NC2=O)c2cc(F)ccc2O1 [Example 2, (2R,4S)-6-Fluoro-2',5'-dioxospiro[chroman-4,4'-imidazolidine]-2-carbohydrazide]	88.6	–	–	–	–	–
CNNC(=O)[C@@H]1C[C@]2(NC(=O)NC2=O)c2cc(F)ccc2O1 [Reference Example 3, (2S,4S)-6-Fluoro-N'-methyl-2',5'-dioxospiro[chroman-4,4'-imidazolidine]-2-carbohydrazide]	41.6	–	–	–	–	–
O=C1NC(=O)[C@@]2(C[C@@H](C(=O)NNC(=O)C(F)(F)F)Oc3ccc(F)cc32)N1 [Example 7, (2S, 4S)-6-Fluoro-2',5'-dioxo-N'-trifluoroacetylspiro[chroman-4,4'-imidazolidine]-2-carbohydrazide]	21.3	–	–	–	–	–
N=C(N)NN [Aminoguanidine, reference compound]	86.9	1300	1900	70.7	59.3	30
NNC(=O)[C@@H]1C[C@@]2(NC(=O)NC2=O)c2cc(F)ccc2O1 [Example 3, (2S,4R)-6-Fluoro-2',5'-dioxospiro[chroman-4,4'-imidazolidine]-2-carbohydrazide]	88.1	–	–	–	–	–
NNC(=O)[C@@H]1C[C@]2(NC(=O)NC2=O)c2cc(F)ccc2O1 [Reference Example 2, (2S,4S)-6 -Fluoro-2',5'-dioxospiro[chroman-4,4'-imidazolidine]-2-carbohydrazide]	88.7	> 4000	> 4000	88.7	67.4	> 2000
NNC(=O)[C@@H]1C[C@]2(NC(=O)N(N)C2=O)c2cc(F)ccc2O1 [Example 9, (2S,4S)-1'-Amino-6-fluoro-2',5'-dioxospiro[chroman-4,4'-imidazolidine]-2-carbohydrazide]	86.6	–	–	–	–	–
